From PMC6753678, “Fueling Open Innovation for Malaria Transmission-Blocking Drugs: Hundreds of Molecules Targeting Early Parasite Mosquito Stages” (Frontiers in Microbiology, 2019)
Like-named read-outs stand apart in the source and are kept apart here.

Tests used:
[1] = system: P. falciparum female gametocytes; parameters: method as in Miguel-Blanco et al 2017; settings: TCAMS library screen; ref Miguel-Blanco et al 2017; read-out: Pf FGAA IC50; cited from earlier work
HepG2 cells = settings: cited from earlier work
[2] = system: P. falciparum female gametocytes; assay: P. falciparum female gametogenesis assay (Pf FGAA); settings: 1: YES; 0: NO
[3] = HepG2 value reported with Pf FGAA screen, ref Miguel-Blanco et al 2017

| Structure (SMILES) | IC50 [1] | HepG2 cytoxicity (Pf FGAA screen) (HepG2 cells; [3]) | Is compound selective in assay? Pf FGAA active? [2] | HepG2 cytoxicity (Pf FGAA screen) (HepG2 cells) |
| --- | --- | --- | --- | --- |
| Cl.Clc1ccc(CNCCCCCCCNCc2ccc(Cl)c(Cl)c2)cc1Cl [TCMDC-138075] | 700 nM | 4.57 µM | 0 (0: NO) |  |
| Cl.N#Cc1c(F)cc(N2CCC(NCC[C@H](N)Cc3ccc(F)c(F)c3)CC2)cc1F [TCMDC-132121] | 730 nM |  | 0 (0: NO) | 4.58 µM |
| FC(F)(F)c1ccc2[nH]c(-c3ccc(-c4ccc(CNCCN5CCNCC5)cc4)cc3)nc2c1.O=C(O)C(F)(F)F [TCMDC-132865] | 1410 nM | 16.43 µM | 1 (1: YES) |  |
| CN1CCN(Cc2ccc(OCc3cccc(COc4ccc(CN5CCN(C)CC5)cc4I)c3)c(I)c2)CC1.Cl [TCMDC-137239] | 1850 nM | 5.01 µM | 0 (0: NO) |  |
| Cl.NC1CCN(CCc2ccc(NS(=O)(=O)c3ccc(-c4ccccc4)cc3)cc2)CC1 [TCMDC-134085] | 750 nM | 7.17 µM | 0 (0: NO) |  |
| Fc1ccc2nc(Nc3nc(-c4ccccn4)cs3)sc2c1 [TCMDC-125540] | 54.3 nM | 58.31 µM | 1 (1: YES) |  |
| CN1CCCC1CCNCc1cccc(-c2cnc(N3CCCC(C)(C)C3)nc2)c1 (stereo not drawn) [TCMDC-133144] | 1670 nM | 4.63 µM | 0 (0: NO) |  |
| O=C(O)C(F)(F)F.O=S(=O)(NCCN1CCCC1)c1ccc(-c2cccc(CNC3Cc4ccccc4C3)c2)cc1 [TCMDC-132215] | 2540 nM | 6.03 µM | 0 (0: NO) |  |
| Cc1ccc2c(c1)c(C1CCN(C(=O)c3ccc([N+](=O)[O-])o3)CC1)cn2C [TCMDC-124787] | 2120 nM | 28.85 µM | 1 (1: YES) |  |
| Nc1nc(N)c2c(ccc3[nH]c(-c4ccccc4Cl)nc32)n1 [TCMDC-137840] | 4420 nM | 2.32 µM | 0 (0: NO) |  |
| COc1ccc(N2CCN(CCCCNCc3ccc(NC(=O)c4cc(Cl)cc(Cl)c4)cc3)CC2)c(OC)c1 [TCMDC-138226] | 3110 nM | 4.42 µM | 0 (0: NO) |  |
| CC(C)C1=CC(=NOS(=O)(=O)c2ccccc2)C=C(C(C)C)C1=O [TCMDC-124172] | 880 nM | 21.70 µM | 1 (1: YES) |  |
| FC(F)(F)c1ccc2[nH]c(-c3cccc(-c4cccc(CNCCN5CCNCC5)c4)c3)nc2c1.O=C(O)C(F)(F)F [TCMDC-132871] | 1220 nM | 6.61 µM | 0 (0: NO) |  |
| CN(CCc1ccccc1)c1ncc(-c2cccc(CNCCC3CCCN3C)c2)cn1 (stereo not drawn) [TCMDC-133143] | 1360 nM | 2.88 µM | 0 (0: NO) |  |
| CCCCSc1c(CNCCCCCCNCc2ccc3ccccc3c2SCCCC)ccc2ccccc12.CS(=O)(=O)O [TCMDC-137825] | 970 nM | 2.76 µM | 0 (0: NO) |  |
| CN1CCC(N2CCC(Oc3cccc(C(=O)NCCCC4CCCC4)c3)CC2)CC1 [TCMDC-124677] | 1470 nM | 4.90 µM | 0 (0: NO) |  |
| Cc1ccc(C(C(=O)Nc2ccc(N3CCNCC3)c(Cl)c2)c2ccccc2)cc1 (stereo not drawn) [TCMDC-134292] | 660 nM | 11.89 µM | 1 (1: YES) |  |
| CCc1cc2c(Sc3nnc(N)s3)ncnc2s1 [TCMDC-123993] | 730 nM | 32.30 µM | 1 (1: YES) |  |
| O=C(O)C(F)(F)F.O=c1[nH]ccc2nc(N[C@@H]3CCNC3)nc(Nc3cc(Cl)cc(Cl)c3)c12 [TCMDC-135052] | 740 nM | 4.79 µM | 0 (0: NO) |  |
| Cc1ccc(-c2nc3cc(NC(=O)c4ccc([N+](=O)[O-])o4)ccc3o2)cc1Cl [TCMDC-123657] | 1350 nM | 1.72 µM | 0 (0: NO) |  |
| CC(C)c1ccc(CN2CCC(CNC(=O)c3cc(-c4cccc(Cl)c4)cs3)C2)cc1.O=C(O)C(F)(F)F (stereo not drawn) [TCMDC-134438] | 600 nM | 6.53 µM | 1 (1: YES) |  |
